Series [1] has as its system rat primary hepatocytes.
Series [2] has as its system HepG2 cells. The settings on record: cited from earlier work.
Series [3] concerns HepG2 cells. The experiment in a line: cells. Conditions: Homo sapiens; for IC50: HepG2, read-out: MMP assays IC50 (µM) HepG2; for Emax: HepG2, read-out: MMP assays efficacy (%) HepG2; call rule not given here.
The test system of series [4] is rat primary hepatocytes. The experiment in a line: MMP assay in rat primary hepatocytes. The settings on record: for IC50: Rattus norvegicus, Hepatocyte, read-out: MMP assays IC50 (µM) Rat Hepatocytes.
Setting [5] is: read-out: MMP assays IC50 (µM) qHTS-HepG2.
Setting [6] is: read-out: MMP assays IC50 (µM), qHTS-HepG2.

The structures appear in SMILES notation. Structures can show the parent of a compound that is named as a salt. Where two headings read alike, the source gives them in different places.

We go through 19 compounds from article PMC6112376, “Comprehensive Analyses and Prioritization of Tox21 10K Chemicals Affecting Mitochondrial Function by in-Depth Mechanistic Studies” (Environmental Health Perspectives, 2018).

In general, IC50 refers to the point on the concentration scale where inhibition reaches its midpoint.

For the compound `CC(C)C[C@H]1C(=O)N2CCC[C@H]2[C@]2(O)O[C@](NC(=O)[C@@H]3C=C4c5cccc6[nH]c(Br)c(c56)C[C@H]4N(C)C3)(C(C)C)C(=O)N12` [Bromocriptine], in the series on rat primary hepatocytes [1], the “MMP assays efficacy (%) Rat Hepatocytes” value is listed as -68±7%. Also, the “MMP assays efficacy (%) qHTS-HepG2” value in the series on HepG2 cells [2] is -112±8%. Also, the IC50 with HepG2 cells [2] (setting [5]) is 11.4 ± 1.58 µM; in the series with HepG2 cells [3], 21.8 µM; in the series on rat primary hepatocytes [4], 13.2 ± 10.8 µM. Further, in the series with HepG2 cells [3], the Emax was 121%.
Take `Nc1ccccc1N` [1,2-Phenylenediamine]: in the series on rat primary hepatocytes [1], the “MMP assays efficacy (%) Rat Hepatocytes” value is -41±14%. Moreover, in the series on HepG2 cells [2], the “MMP assays efficacy (%) qHTS-HepG2” value is reported as -96±16%. Moreover, the IC50 in the series on HepG2 cells [2] (setting [5]) was 3.9 ± 3.61 µM; in the series with HepG2 cells [3] it was 2.51 µM; in the series with rat primary hepatocytes [4], 17.9 ± 6.5 µM. In the series on HepG2 cells [3], the Emax amounted to 87%.
As to `COC1C(O)CC(OC2CC(Oc3cc4cc5c(c(O)c4c(O)c3C)C(=O)[C@@H](OC3CC(OC4CC(OC6CC(C)(O)C(OC(C)=O)C(C)O6)C(O)C(C)O4)C(O)C(C)O3)[C@H]([C@H](OC)C(=O)[C@@H](O)[C@@H](C)O)C5)OC(C)C2OC(C)=O)OC1C` (stereo partly drawn) [chromomycin], the “MMP assays efficacy (%) Rat Hepatocytes” value with rat primary hepatocytes [1] was “inactive”. In addition, in the series with HepG2 cells [2], the “MMP assays efficacy (%) qHTS-HepG2” value was -84±13%. The IC50 with HepG2 cells [2] (setting [5]) is 12.3 ± 0.84 µM. In the series with HepG2 cells [3], the IC50 came to 35.5 µM and the Emax came out at 44%. Further, the “MMP assays IC50 (µM) Rat Hepatocytes” value with rat primary hepatocytes [4] was “inactive”.
`O=C(N/N=C/c1ccc([N+](=O)[O-])o1)c1ccc(O)cc1` [Nifuroxazide]: the “MMP assays efficacy (%) Rat Hepatocytes” value in the series with rat primary hepatocytes [1] is recorded as -91±23%. The “MMP assays efficacy (%) qHTS-HepG2” value in the series on HepG2 cells [2] is -89±9%. Also, the IC50 in the series on HepG2 cells [2] (setting [6]) is 1.57 ± 0.3 µM; with HepG2 cells [3], 2.34 µM; with rat primary hepatocytes [4], 6.71 ± 1.54 µM. Further, in the series on HepG2 cells [3], the Emax turned out to be 113%.
For `Oc1ccc(/C=C/c2cc(O)cc(O)c2)cc1` [Resveratrol], the “MMP assays efficacy (%) Rat Hepatocytes” value with rat primary hepatocytes [1] was “inactive”. Besides, the “MMP assays efficacy (%) qHTS-HepG2” value in the series with HepG2 cells [2] is reported as -66±11%. Further, in the series with HepG2 cells [2] (setting [6]), the IC50 was 1.6 ± 0.43 µM. Further, in the series with HepG2 cells [3], the IC50 is 3.71 µM and the Emax came out at 33%. In the series with rat primary hepatocytes [4], the “MMP assays IC50 (µM) Rat Hepatocytes” value was “inactive”.
In the case of `CCCCCCc1ccc(-c2ccc(C#N)cc2)cc1` [4-Hexyl-4'-cyanobiphenyl], the “MMP assays efficacy (%) Rat Hepatocytes” value with rat primary hepatocytes [1] is on record as -56±24%. Further, the “MMP assays efficacy (%) qHTS-HepG2” value in the series with HepG2 cells [2] is on record as -109±6%. For the same compound, the IC50 in the series with HepG2 cells [2] (setting [5]) is 42.5 ± 15.4 µM; in the series with HepG2 cells [3], 31.6 µM; with rat primary hepatocytes [4], 17.5 ± 15.6 µM. Further, the Emax in the series with HepG2 cells [3] is 59%.
On to `CC(=O)CC(c1ccc([N+](=O)[O-])cc1)c1c(O)c2ccccc2oc1=O` (stereo not drawn) [Acenocoumarol], for which the “MMP assays efficacy (%) Rat Hepatocytes” value with rat primary hepatocytes [1] was -64±56%. In addition, the “MMP assays efficacy (%) qHTS-HepG2” value in the series on HepG2 cells [2] is listed as -96±12%. The IC50 in the series with HepG2 cells [2] (setting [5]) was 8.36 ± 1.07 µM; with HepG2 cells [3], 9.32 µM; in the series with rat primary hepatocytes [4], 4.59 ± 1.82 µM. The Emax in the series with HepG2 cells [3] was 89%.
As for `COC(=O)N(C(=O)N1CO[C@@]2(C(=O)OC)Cc3cc(Cl)ccc3C2=N1)c1ccc(OC(F)(F)F)cc1` [Indoxacarb], the “MMP assays efficacy (%) Rat Hepatocytes” value in the series with rat primary hepatocytes [1] was -88±26%. Besides, the “MMP assays efficacy (%) qHTS-HepG2” value in the series with HepG2 cells [2] is listed as -83±20%. For the same compound, the values for the IC50 in the series with HepG2 cells [2] (setting [6]), in the series with HepG2 cells [3] and in the series on rat primary hepatocytes [4] were 12.7 ± 3.65 µM, 15.3 µM and 34.4 ± 5.58 µM, respectively. Also, in the series on HepG2 cells [3], the Emax turned out to be 57%.
Regarding `COc1ccc2cc3[n+](cc2c1OC)CCc1cc2c(cc1-3)OCO2` [Berberine chloride], the “MMP assays efficacy (%) Rat Hepatocytes” value with rat primary hepatocytes [1] is on record as -101±32%. Also, in the series with HepG2 cells [2], the “MMP assays efficacy (%) qHTS-HepG2” value is listed as -95±8%. Besides, the IC50 with HepG2 cells [2] (setting [5]) is 2.03 ± 1.29 µM; with HepG2 cells [3] it was 3.46 µM; with rat primary hepatocytes [4], 6.03 ± 3.78 µM. Moreover, the Emax in the series with HepG2 cells [3] stood at 92%.
Regarding `CC(=O)Oc1ccc(C(c2ccc(OC(C)=O)cc2)c2ccccn2)cc1` [Bisacodyl], the “MMP assays efficacy (%) Rat Hepatocytes” value in the series with rat primary hepatocytes [1] is on record as -73±12%. For the same compound, the “MMP assays efficacy (%) qHTS-HepG2” value with HepG2 cells [2] was -67±5%. Besides, the results for the IC50 in the series with HepG2 cells [2] (setting [5]), with HepG2 cells [3] and with rat primary hepatocytes [4] were 14.8 ± 3.63 µM, 7.74 µM and 18.4 ± 13 µM, respectively. The Emax in the series with HepG2 cells [3] amounted to 95%.
In the case of `O=c1cc(-c2ccc(O)cc2)oc2cc(O)cc(O)c12` [Apigenin], the “MMP assays efficacy (%) Rat Hepatocytes” value with rat primary hepatocytes [1] is reported as -66±35%. In addition, the “MMP assays efficacy (%) qHTS-HepG2” value in the series with HepG2 cells [2] is listed as -98±2%. Further, the IC50 in the series with HepG2 cells [2] (setting [5]) was 1.61 µM; in the series with HepG2 cells [3], 3.55 µM; in the series with rat primary hepatocytes [4], 28.9 ± 9.26 µM. For the same compound, the Emax with HepG2 cells [3] amounted to 88%.
As for `CCC/C=C/C=C/C(=O)O[C@H]1/C(=C/C(=O)OC)C[C@H]2C[C@H]([C@@H](C)O)OC(=O)C[C@H](O)C[C@@H]3C[C@H](OC(C)=O)C(C)(C)[C@](O)(C[C@@H]4C/C(=C/C(=O)OC)C[C@H](/C=C/C(C)(C)[C@]1(O)O2)O4)O3` [Bryostatin 1], the “MMP assays efficacy (%) Rat Hepatocytes” value in the series on rat primary hepatocytes [1] is on record as -46±21%. Moreover, the “MMP assays efficacy (%) qHTS-HepG2” value in the series on HepG2 cells [2] was -105±21%. Also, the figures for the IC50 in the series on HepG2 cells [2] (setting [5]), with HepG2 cells [3] and with rat primary hepatocytes [4] were 0.01 ± 0.01 µM, 0.001 µM and 0.79 ± 1.07 µM, respectively. Moreover, the Emax in the series with HepG2 cells [3] was 92%.
For `C[C@@]12C(=O)OC(=O)[C@]1(C)[C@H]1CC[C@@H]2O1` [Cantharidin], the “MMP assays efficacy (%) Rat Hepatocytes” value in the series on rat primary hepatocytes [1] is -91±63%. The “MMP assays efficacy (%) qHTS-HepG2” value in the series on HepG2 cells [2] is -67±9%. The IC50 in the series with HepG2 cells [2] (setting [5]) was 0.15 ± 0.08 µM; in the series on HepG2 cells [3] it was 0.12 µM; in the series with rat primary hepatocytes [4] it was 0.45 ± 0.3 µM. In addition, in the series on HepG2 cells [3], the Emax came to 98%.
In the case of `COc1cc(NS(C)(=O)=O)ccc1Nc1c2ccccc2nc2ccccc12` [Amsacrine hydrochloride], the “MMP assays efficacy (%) Rat Hepatocytes” value in the series on rat primary hepatocytes [1] is given as -110±40%. Moreover, the “MMP assays efficacy (%) qHTS-HepG2” value in the series with HepG2 cells [2] is reported as -75±13%. Also, the IC50 in the series with HepG2 cells [2] (setting [5]) was 10.3 ± 2.45 µM; in the series with HepG2 cells [3], 56.2 µM; in the series with rat primary hepatocytes [4], 37.6 ± 3.06 µM. Besides, the Emax with HepG2 cells [3] was determined as 110%.
Consider `O=C(NC(=O)c1c(F)cccc1F)Nc1cc(Cl)c(Oc2ncc(C(F)(F)F)cc2Cl)c(Cl)c1` [Chlorfluazuron], for which, in the series on rat primary hepatocytes [1], the “MMP assays efficacy (%) Rat Hepatocytes” value is listed as -79±42%. For the same compound, the “MMP assays efficacy (%) qHTS-HepG2” value in the series on HepG2 cells [2] is reported as -114±19%. Also, the figures for the IC50 in the series on HepG2 cells [2] (setting [5]), in the series with HepG2 cells [3] and with rat primary hepatocytes [4] were 8.93 ± 4.57 µM, 12.6 µM and 29.3 ± 1.99 µM, respectively. Also, the Emax in the series on HepG2 cells [3] worked out at 98%.
On to `CC(C)[C@H](C(=O)OC(C#N)c1cccc(Oc2ccccc2)c1)c1ccc(OC(F)F)cc1` (stereo partly drawn) [Flucythrinate], for which, in the series on rat primary hepatocytes [1], the “MMP assays efficacy (%) Rat Hepatocytes” value is on record as -57±39%. In addition, the “MMP assays efficacy (%) qHTS-HepG2” value with HepG2 cells [2] is -84±23%. The IC50 is 35.7 ± 20 µM in the series on HepG2 cells [2] (setting [6]), 31.6 µM in the series with HepG2 cells [3] and 43.9 ± 17.4 µM in the series with rat primary hepatocytes [4]. The Emax in the series on HepG2 cells [3] was 80%.
Turning to `O=C(Nc1ccc(Cl)c(Cl)c1)c1cc(Cl)cc(Cl)c1O` [3,5-Dichlorosalicyl-3,4-dichloroanilide], the “MMP assays efficacy (%) Rat Hepatocytes” value in the series on rat primary hepatocytes [1] was -67±6%. Moreover, in the series with HepG2 cells [2], the “MMP assays efficacy (%) qHTS-HepG2” value is on record as -105±6%. For the same compound, the IC50 was 0.22 ± 0.09 µM in the series on HepG2 cells [2] (setting [5]), 0.11 µM in the series with HepG2 cells [3] and 0.38 ± 0.03 µM with rat primary hepatocytes [4]. In the series with HepG2 cells [3], the Emax stood at 93%.
`O=C(Nc1ccccc1)Nc1ccnc(Cl)c1` [Forchlorfenuron]: the “MMP assays efficacy (%) Rat Hepatocytes” value with rat primary hepatocytes [1] is -108±37%. Further, the “MMP assays efficacy (%) qHTS-HepG2” value with HepG2 cells [2] is reported as -112±3%. For the same compound, the IC50 is 0.45 ± 0.13 µM in the series with HepG2 cells [2] (setting [6]), 1 µM in the series with HepG2 cells [3] and 2.19 ± 1.97 µM in the series on rat primary hepatocytes [4]. Moreover, the Emax in the series on HepG2 cells [3] turned out to be 104%.
For the compound `CCOC(=O)C1(c2ccccc2)CCN(CCC(C#N)(c2ccccc2)c2ccccc2)CC1` [Diphenoxylate hydrochloride], the “MMP assays efficacy (%) Rat Hepatocytes” value in the series on rat primary hepatocytes [1] is reported as -81±36%. In addition, the “MMP assays efficacy (%) qHTS-HepG2” value in the series on HepG2 cells [2] is -56±8%. The IC50 in the series with HepG2 cells [2] (setting [5]) was 20.7 ± 1.19 µM; in the series on HepG2 cells [3], 17.3 µM; in the series with rat primary hepatocytes [4] it was 19.4 µM. In addition, the Emax with HepG2 cells [3] came to 71%.
